Results on 17 molecules are retold here after US20040132049A1, “Method for the detection of apoptosis” (priority 2002, published 2004).

Data set [1] has as its system U937 cells. Put plainly: MTT viable cell assay after UV irradiation. The class given is cell-based, Human. To be noted: 1 mM 3-ABA pre-treatment, MTT 48 hours after irradiation. The procedure:
Because PARP-1 is involved in both repair of DNA damage and induction of apoptosis, 3-ABA can both increase apoptotic cell death (by preventing repair) or decrease it (by preventing PARP-1 cleavage), depending on conditions. Therefore, the ability of 3-ABA to inhibit cell death under the conditions used here was examined. Cells were subjected to UV irradiation with or without 1 mM 3-ABA pre-treatment. Untreated and irradiated cells were plated at 2×10^4/ml in a 96-well plate. Viable cells were assessed using the MTT (3-[4,5-dimethylthiazol-2-yl]-2,5-diphenyl tetrazolium bromide) assay (Norgaard et al., 2001) 48 hours after irradiation.
A general note: Tetrazolium dyes change colour on reduction, which living cells bring about.

Data set [2] relates to nucleolin and PARP-1 proteins in U937 cells. Put plainly: Immunoblot of nucleolin and PARP-1 in S-100 and nuclear extracts after CPT-induced apoptosis. The class given is cell-based, Human. The procedure: Cells were harvested and washed twice with cold PBS. S-100 and nuclear extracts were prepared (Coqueret and Gascan, 2000). Briefly, 100 μl of ice-cold extraction buffer B (10 mM 4-(2-Hydroxyethyl)piperazine-1-ethanesulfonic acid (HEPES; pH 7.9), 1.5 mM MgCl2, 10 mM KCl, 1 mM phenylmethylsulfonyl fluoride (PMSF), 1 μg/ml leupeptin, 1 μg/ml aprotinin) were added to the cells. After three cycles of freeze-thaw, S-100 extracts were recovered as supernatant following centrifugation at 12,000 rpm for 1 minute, and pellets containing nuclei were resuspended in 40 μl of buffer C (20 mM HEPES, pH 7.9, 1.5 mM MgCl2, 420 mM KCl, 0.2 mM EDTA, 25% glycerol, 1 mM PMSF, 1 μg/ml leupeptin, 1 μg/ml aprotinin). Following 30 minutes incubation at 4° C., insoluble material was removed by centrifugation at 12,000 rpm for 5 minutes, and nuclear extracts were collected as supernatant. Extracts were either used immediately or frozen and stored at −80° C.
The concentration of extracted proteins was determined using the BioRad DC protein assay kit (BioRad; Hercules, Calif.). Samples (10 μg) were incubated in sodium dodecyl sulfate (SDS)-loading buffer (100 mM Tris-HCl, pH 6.8, 200 mM dithiothreitol (DTT), 4% SDS, 0.2% bromophenol blue, 20% glycerol) at 65° C. for 15 minutes, and separated on 10% (for nucleolin detection) or 8% (for PARP-1) polyacrylamide-SDS gels, followed by electroblotting to polyvinylidene difluoride membranes (PVDF, BioRad). After blocking non-specific binding sites for 1 hour in 5% nonfat dried milk in PBST (0.1% polyoxyethylene(20) sorbitan monolaurate (Tween® 20) in PBS), the membrane was incubated for 1 hour at room temperature or overnight at 4° C. with primary antibody (1:1000 anti-nucleolin or anti-PARP-1; Anti-nucleolin antibody (mouse monoclonal IgG1) and anti-PARP-1 antibody (mouse monoclonal IgG2A) were from Santa Cruz Biotechnology; Santa Cruz; Calif.). After 3 washes in PBST, the membrane was incubated with horseradish peroxidase-conjugated goat anti-mouse antibody (Santa Cruz Biotechnology) for 45 minutes at room temperature and then washed 3 times in PBST. Bound antibodies were detected using enhanced chemiluminescence detection. Equal gel loading and transfer of proteins were confirmed by staining membranes with India ink (Bates et al., 1999).
To determine if the phenomena observed in Example 2 were specific to UV-irradiated cells or a general feature of apoptosis, protein changes in U937 cells treated with 10 μM CPT (prepared as in Example 1) for 24 hours were also examined. The U937 cells were cultured as in Example 2. Apoptosis-induced changes in nucleolin and PARP-1 were examined as in Example 2.
Background: A western blot detects proteins with antibodies after separation by electrophoresis.

For data set [3] the test system is unchanged. Put plainly: Immunoblot of nucleolin and PARP-1 in S-100 and nuclear extracts after UV-induced apoptosis. The class given is cell-based, Human. Conditions: UV-irradiated U937 cells, 30 minutes pre-incubation with 1 mM 3-ABA.
Protocol: The concentration of extracted proteins was determined using the BioRad DC protein assay kit (BioRad; Hercules, Calif.). […] After 3 washes in PBST, the membrane was incubated with horseradish peroxidase-conjugated goat anti-mouse antibody (Santa Cruz Biotechnology) for 45 minutes at room temperature and then washed 3 times in PBST. Bound antibodies were detected using enhanced chemiluminescence detection. Equal gel loading and transfer of proteins were confirmed by staining membranes with India ink (Bates et al., 1999).
Some cells received 30 minutes pre-incubation with 1 mM 3-ABA before UV-irradiation.
Data set [4] deals with nucleolin in medium of U937 cells. The data set can be described thus: Immunoblot of nucleolin shed into serum-free culture medium. The class given is cell-based, Human. The procedure:
The possibility that nucleolin was shed into the cell culture medium was examined by probing serum-free medium from cultures of U937 cells irradiated with UV light in the absence or presence of 3-ABA. Cell culture and treatment conditions were as in Example 2. To prepare protein from the cell culture medium, the medium was replaced with serum-free medium, and cells were irradiated. Cells were then centrifuged at 1,200 rpm for 10 minutes. Culture medium was collected from untreated and treated cells at 2 hours and 4 hours following irradiation. The medium was filtered (syringe filters with PVDF membranes, Whatman; Clifton, N.J.), and protein present in the medium was concentrated using Centricon (YM-30, Millipore, Bedford, Mass.) according the manufacturer's instructions.

The subject of data set [5] is U937 cells. Put plainly: DNA fragmentation (DNA ladder) assay of apoptosis. The class given is cell-based, Human. To be noted: 10 μM CPT. The procedure:
Camptothecin (CPT; Sigma Co.; St. Louis, Mo.), an anti-neoplastic topo-isomerase I (Top I) inhibitor, was dissolved in 0.5% (v/v) dimethyl sulfoxide (DMSO)/PBS as stock solutions (stored at −20° C.) and further diluted with water before use. Human U937 cells (myeloid leukemia cell line, from American Type Culture Collection (ATCC); Manassas, Va.) were grown in suspension in RPMI 1640 medium supplemented with 10% heat-inactivated (20 minutes at 65° C.) fetal bovine serum (FBS), 100 U/ml penicillin, 100 μg/ml streptomycin at 37° C. with 5% CO2. For treatment with CPT, exponentially growing U937 cells were treated with 10 μM CPT for 24 hours. For UV irradiation, cells were plated at 5×10^5 cells/ml in dishes (60 mm diameter). The cells were irradiated with UV-light by placing the plate (without a lid) directly in a Stratagene (La Jolla) UV Stratalinker and irradiating for 30 seconds at 254 nm. Some cells received 30 minutes pre-incubation with 1 mM 3-aminobenzamide (ABA); Sigma). Cells were then replaced in the incubator at 37° C. for various times. Apoptosis was observed using a DNA fragmentation assay (Facompre et al., 2001). In this assay, apoptosis is indicated by the appearance of a DNA “ladder”, which is produced by endonuclease cleavage of chromosomal DNA into nucleosomal fragments.

The subject of a further data set is nucleolin in U937 cells. The data set can be described thus: Immunofluorescence staining of nucleolin in cells. The class given is cell-based, Human. The procedure: Cells were collected by centrifugation, washed twice with PBS, and placed on glass slides using a cytospinner. Samples were fixed in 4% paraformaldehyde in PBS for 15 minutes at room temperature and then permeabilized with 0.2% Triton X-100 in PBS for 10 minutes. After two washes with PBS, nonspecific antibody binding sites were blocked by 1 hour incubation at room temperature with 5% normal goat serum in PBS. After 3 washes with PBS, slides were incubated in primary antibody (1:100 anti-mAb IgG1; Santa Cruz Biotechnology) for 1 hour at room temperature then washed 3 times in PBS. Samples were incubated with Alexa-488-labeled secondary antibodies (diluted 1:500 in blocking buffer) for 1 hour at room temperature. Slides were washed 3 times in PBS, were observed using an Olympus BX60F fluorescence microscope and photographed using an Olympus DPIO camera.
Untreated, UV-irradiated, and 10 μM CPT-treated U937 cells were examined using the above staining method. Culture and treatment conditions were as in Example 2. […] Moreover, there was a dramatic redistribution of nucleolin in the apoptotic nuclei. In untreated cells, nucleolin was predominantly located in the intensely stained nucleoli (FIG. 1, panels A and D), whereas 24 hours after UV irradiation, nucleolin was distributed throughout the nucleolplasm in a speckled pattern (FIG. 1, panels B and E). […]

The target in data set [6] is plasma membrane nucleolin (Homo sapiens, UniProt P19338). Further details: key: 1: Indicates a good plasma membrane nucleolin-binding GRO.; 2: Indicates a nucleolin control (non-plasma membrane nucleolin binding). Conditions: superscript on GRO name in Table 2; cited from earlier work.
Chain of plasma membrane nucleolin (P19338 whole entry): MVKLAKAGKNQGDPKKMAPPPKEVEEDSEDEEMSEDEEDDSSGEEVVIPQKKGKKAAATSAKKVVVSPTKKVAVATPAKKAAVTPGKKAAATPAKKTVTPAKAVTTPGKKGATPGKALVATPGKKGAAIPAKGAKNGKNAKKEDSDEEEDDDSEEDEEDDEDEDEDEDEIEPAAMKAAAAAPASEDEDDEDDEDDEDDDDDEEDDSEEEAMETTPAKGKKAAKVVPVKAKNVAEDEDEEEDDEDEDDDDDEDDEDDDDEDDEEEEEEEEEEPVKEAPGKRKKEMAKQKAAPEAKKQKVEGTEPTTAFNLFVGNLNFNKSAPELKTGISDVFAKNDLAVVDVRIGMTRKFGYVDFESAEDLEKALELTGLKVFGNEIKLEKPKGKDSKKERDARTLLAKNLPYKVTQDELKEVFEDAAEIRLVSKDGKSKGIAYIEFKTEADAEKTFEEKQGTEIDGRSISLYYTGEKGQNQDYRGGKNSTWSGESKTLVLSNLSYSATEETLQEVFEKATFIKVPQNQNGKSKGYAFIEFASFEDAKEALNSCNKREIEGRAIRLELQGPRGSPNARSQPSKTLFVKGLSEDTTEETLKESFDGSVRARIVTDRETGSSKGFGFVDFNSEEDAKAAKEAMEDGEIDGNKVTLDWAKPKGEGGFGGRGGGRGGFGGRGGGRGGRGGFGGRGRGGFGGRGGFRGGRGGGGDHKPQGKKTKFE
Where [7] appears, read: U937 cells, 10 μM CPT for 24 hours.

In the case of `NC(=O)c1cccc(N)c1` [3-ABA, 3-aminobenzamide], the “reduction of UV-induced cell death” value with U937 cells [1] is listed as “only to a small degree”. In addition, the “protection from apoptosis-induced changes in nucleolin and PARP-1” value in data set [2] (CPT-treated U937 cells, pre-incubation with 3-ABA) is given as “only a small degree of protection”. In addition, in data set [3], the PARP-1 cleavage result is “abrogation of PARP-1 cleavage”, the “disappearance of S-100 nucleolin” value was “drastically inhibited the disappearance of S-100 nucleolin” and the “loss of nuclear nucleolin” value is recorded as “prevented the loss of nuclear nucleolin”. In addition, the “nucleolin in medium of untreated (non-irradiated) cells” value in data set [4] (U937 cells without UV irradiation, with 3-ABA treatment) is recorded as “almost no nucleolin was detected”. In data set [4] (UV-irradiated U937 cells, serum-free medium, with 3-ABA), the “appearance of full-length nucleolin band in medium after UV irradiation” value was “inhibited”.

`CC[C@@]1(O)C(=O)OCc2c1cc1n(c2=O)Cc2cc3ccccc3nc2-1` [CPT, Camptothecin]: in the data set with U937 cells [5], the “induction of apoptosis (DNA ladder)” value was “induced apoptosis” and the “time at which DNA ladder clearly observed” value was 24 h. Further, the “distribution of nucleolin in nuclei” value with nucleolin in U937 cells (U937 cells treated with CPT for 24 hours) is reported as “the majority of nuclei exhibited a distinct pattern of staining”. Moreover, the “overall intensity of nuclear nucleolin staining” value in the data set with nucleolin in U937 cells (U937 cells, 10 μM CPT) is “decreased slightly”. Also, in data set [2] (setting [7]), the nuclear nucleolin entry is listed as “reduced the amount of nuclear nucleolin” and the “nucleolin in S-100 fraction” value is reported as “caused a disappearance of nucleolin from the S-100 fraction”. The PARP-1 cleavage entry in data set [2] (U937 cells, 10 μM CPT, after 4 hours) is on record as “only partial cleavage”.

With “CRO: SEQ ID NO:18 tttcctcctc ctccttctcc tcctcctcc; nucleolin control (DNA TTTCCTCCTCCTCCTTCTCCTCCTCCTCC; listed as DNA, chemistry not given here)”, the “plasma membrane nucleolin binding designation” value in data set [6] was “CRO^2”.

For “GRO15B: SEQ ID NO:8 ttgggggggg tgggt (TTGGGGGGGGTGGGT; listed as DNA, chemistry not given here)”, the “plasma membrane nucleolin binding designation” value in data set [6] was “GRO15B^2”.

Regarding “GRO26B: SEQ ID NO:10 ggtggtggtg gttgtggtgg tggtgg”, the “plasma membrane nucleolin binding designation” value in data set [6] was “GRO26B^1”.

On to GRO G: SEQ ID NO:25 ggttggtgtg gttgg, for which, in data set [6], the “plasma membrane nucleolin binding designation” value is listed as “GRO G^1”.

As for “GRO H: SEQ ID NO:26 ggggttttgg gg (DNA GGGGTTTTGGGG; listed as DNA, chemistry not given here)”, the “plasma membrane nucleolin binding designation” value in data set [6] is listed as “GRO H^1”.

“GRO I: SEQ ID NO:27 gggttttggg (DNA GGGTTTTGGG; listed as DNA, chemistry not given here)”: in data set [6], the “plasma membrane nucleolin binding designation” value was “GRO I^1”.

In the case of “GRO J: SEQ ID NO:28 ggggttttgg ggttttgggg ttttgggg (DNA GGGGTTTTGGGGTTTTGGGGTTTTGGGG; listed as DNA, chemistry not given here)”, the “plasma membrane nucleolin binding designation” value in data set [6] is given as “GRO J^1”.

Turning to “GRO K: SEQ ID NO:29 ttggggttgg ggttggggtt gggg (DNA TTGGGGTTGGGGTTGGGGTTGGGG; listed as DNA, chemistry not given here)”, the “plasma membrane nucleolin binding designation” value in data set [6] was “GRO K^1”.

With “GRO M: SEQ ID NO:31 ggttttggtt ttggttttgg ttttgg (DNA GGTTTTGGTTTTGGTTTTGGTTTTGG; listed as DNA, chemistry not given here)”, the “plasma membrane nucleolin binding designation” value in data set [6] is given as “GRO M^1”.

Consider “GRO N: SEQ ID NO:32 tttcctcctc ctccttctcc tcctcctcc; nucleolin control (DNA TTTCCTCCTCCTCCTTCTCCTCCTCCTCC; listed as DNA, chemistry not given here)”, for which the “plasma membrane nucleolin binding designation” value in data set [6] is listed as “GRO N^2”.

For the molecule “GRO O: SEQ ID NO:33 cctcctcctc cttctcctcc tcctcc; nucleolin control (DNA CCTCCTCCTCCTTCTCCTCCTCCTCC; listed as DNA, chemistry not given here)”, in data set [6], the “plasma membrane nucleolin binding designation” value is on record as “GRO O^2”.

For the molecule “GRO P: SEQ ID NO:34 tggggt; nucleolin control”, the “plasma membrane nucleolin binding designation” value in data set [6] is “GRO P^2”.

Turning to “GRO Q: SEQ ID NO:35 gcatgct; nucleolin control (DNA GCATGCT; listed as DNA, chemistry not given here)”, the “plasma membrane nucleolin binding designation” value in data set [6] is recorded as “GRO Q^2”.

As for “GRO R: SEQ ID NO:36 gcggtttgcg g; nucleolin control (DNA GCGGTTTGCGG; listed as DNA, chemistry not given here)”, the “plasma membrane nucleolin binding designation” value in data set [6] is given as “GRO R^2”.

Turning to “GRO S: SEQ ID NO:37 tagg; nucleolin control (DNA TAGG; listed as DNA, chemistry not given here)”, the “plasma membrane nucleolin binding designation” value in data set [6] was “GRO S^2”.
